Measured values as given in patent publication US20240400638A1, “COMBINATION OF RELAXIN AND VASOPRESSIN ANALOGUES FOR TREATMENT OF RENAL DISORDERS OR CONDITIONS” (River 2 Renal Corp., priority 2021, published 2024).
Numbered stars: 1 amine (or outer) side, 2 acyl side, 3 side chain; on linkers, the order of the positions; unused ones are H or OH. Bridge positions count the residues as written; N and C are the ends. Square brackets hold non-standard residues; d marks the D form. Side chains are listed from the residue outwards. Peptide text beside a SMILES is read from it. * marks the point of attachment. X1 = CCCCCCCCCCCCCCCC(=O)N[C@@H](CCC(=O)N[C@@H](CCC(=O)N[C@@H](CCC(=O)NCCCOCCOCCOCCCNC(=O)CCC(=O)NCCCOCCOCCOCCCNC(=O)CCC(=O)NCCCOCCOCCOCCCN*)C(=O)O)C(=O)O)C(=O)O; Suc = O=C(CCC(=O)[*:2])[*:1]; Aib = CC(C)(N)C(=O)O

Tests used:
[1] = cited from earlier work
[2] = target: T1, human RXFP1 (Homo sapiens, UniProt Q9HBX9); assay: In vitro OVCAR5 cAMP assay (HTRF); type: cell-based; conditions: OVCAR 5 cells (cAMP)
T1 construct: OVCAR5 cells expressing endogenous human RXFP1; endogenous in cells; host or cells: OVCAR5 cells
T1 sequence (Q9HBX9 1-757): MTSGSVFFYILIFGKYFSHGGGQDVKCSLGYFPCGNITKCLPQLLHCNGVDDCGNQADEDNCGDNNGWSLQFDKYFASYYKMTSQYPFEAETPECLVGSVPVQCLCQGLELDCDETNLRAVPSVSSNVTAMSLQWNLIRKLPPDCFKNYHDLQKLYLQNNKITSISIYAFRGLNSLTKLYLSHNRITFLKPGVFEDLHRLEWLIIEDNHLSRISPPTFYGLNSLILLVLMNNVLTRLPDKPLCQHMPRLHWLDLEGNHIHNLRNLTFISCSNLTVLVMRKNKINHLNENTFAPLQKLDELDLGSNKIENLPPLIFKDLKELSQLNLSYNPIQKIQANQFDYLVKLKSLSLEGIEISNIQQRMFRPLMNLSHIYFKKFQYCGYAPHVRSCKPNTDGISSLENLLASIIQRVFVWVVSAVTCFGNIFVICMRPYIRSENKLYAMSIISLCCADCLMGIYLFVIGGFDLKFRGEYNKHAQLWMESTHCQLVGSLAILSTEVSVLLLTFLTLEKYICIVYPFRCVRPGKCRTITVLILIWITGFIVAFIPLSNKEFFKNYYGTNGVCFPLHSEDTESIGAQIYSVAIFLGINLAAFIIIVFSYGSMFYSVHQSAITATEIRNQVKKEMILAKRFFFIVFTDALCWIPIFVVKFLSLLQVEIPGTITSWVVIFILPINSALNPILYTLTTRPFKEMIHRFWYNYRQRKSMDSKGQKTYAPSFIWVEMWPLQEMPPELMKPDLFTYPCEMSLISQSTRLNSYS
From the text: OVCAR5 cells expressing endogenous human RXFP1 were used to test RXFP1 agonist properties of relaxin peptide analogues, and in particular of the peptides of sequence SEQ ID NO: 1-97.
Since RXFP1 is a Gs coupled GPCR, increases in cAMP was used as readout of RXFP1 activation.
Isobutyl methyl xanthine (IBMX) was used to inhibit phosphodiesterase activity facilitating cAMP measurements. HTRF (Homogenous Time Resolved Fluorescence) technology was used to detect cAMP due to its high sensitivity.
In summary, OVCAR5 were grown in regular medium (RPMI) containing 10% fetal calf serum (FCS) and 1% antibiotics (penicillin/streptomycin).
Before the experiments, cells were detached with accutase and incubated for 40 minutes at 37° C. with 1 mM (3-isobutyl-1-methylxanthine) IBMX.
Cells were then distributed in 384 black well plates containing increasing concentrations of the different peptides in a fix volume of medium (without FCS).
After an incubation of 30 min at 37° C. in a humid incubator in 5% CO2, the reaction was stopped by adding a fixed volume of a solution containing a lysis buffer and cAMP-D2 (cAMP labeled with the dye d2) and the anti-cAMP antibody linked to Europium and used for cAMP detection.
Readout of the experiment were performed on a fluorimeter allowing HTRF measurement. Activation curves were generated by plotting the intracellular value of cAMP versus log 10 of the compound concentration.
The 50% activation concentration (EC50) was calculated by nonlinear regression using the sigmoidal dose-response (variable slope) equation with Prism 5 software.
Emax % was determined as the maximal intracellular value of cAMP for test compound (upper limit of cAMP vs concentration curve) divided by the maximal intracellular value of cAMP for human relaxin-2 (H2-R1x) determined in the same test occasion multiplied by 100.

Structure (SMILES)	mortality ([1]; at 3 months, patients receiving terlipressin and standard of care (e.g., albumin), Wong et al. 2021)	patients requiring discontinuation of treatment for severe side effects ([1]; human, in vivo)	patients with side effects ([1]; human, in vivo)	EC50 ([2]; Table 2)	Emax ([2]; maximal cAMP relative to human relaxin-2, Table 2)
NCCCC[C@H](NC(=O)[C@@H]1CCCN1C(=O)[C@@H]1CSSC[C@H](NC(=O)CNC(=O)CNC(=O)CN)C(=O)N[C@@H](Cc2ccc(O)cc2)C(=O)N[C@@H](Cc2ccccc2)C(=O)N[C@@H](CCC(N)=O)C(=O)N[C@@H](CC(N)=O)C(=O)N1)C(=O)NCC(N)=O [terlipressin, Terlipressin] (H-GGGCYFQNCPKG-NH2; disulfide 4-9)	51%	up to 10%	up to 40%	–	–
CCCCCCCCCCCCCCCC(=O)N[C@@H](CCC(=O)N[C@@H](CCC(=O)N[C@@H](CCC(=O)NCCCOCCOCCOCCCNC(=O)CCC(=O)NCCCOCCOCCOCCCNC(=O)CCC(=O)NCCCOCCOCCOCCCNC(=O)CCC(=O)NCCCC[C@H](NC(=O)CNC(=O)[C@H](CCC(=O)O)NC(=O)C(C)(C)NC(=O)C(C)(C)NC(=O)[C@@H](NC(=O)[C@H](CCCCNC(C)=O)NC(=O)C(C)(C)NC(=O)[C@H](CCCNC(=N)N)NC(=O)[C@@H](NC(=O)[C@H](CCCCN)NC(=O)[C@H](CCC(=O)O)NC(=O)[C@H](CCCNC(=N)N)NC(=O)CNC(=O)[C@H](CCC(=O)O)NC(=O)[C@H](CC(C)C)NC(C)=O)C(C)C)[C@@H](C)CC)C(=O)N[C@@H](CO)C(=O)N[C@H](C(=O)N[C@@H](Cc1c[nH]c2ccccc12)C(=O)N[C@@H](CO)C(=O)NC(C)(C)C(=O)N[C@@H](CCCNC(=N)N)C(=O)N[C@@H](C)C(=O)N[C@@H](CCCCNC(C)=O)C(N)=O)[C@@H](C)O)C(=O)O)C(=O)O)C(=O)O [compound 82] (Ac-LEGREKVR[Aib]K(Ac)I[Aib][Aib]EGK([Suc-X1])STWS[Aib]RAK(Ac)-NH2)	–	–	–	0.54 nM	95%
